Carcinogen call and TD50 data for nine molecules are collected here from PubChem BioAssay AID1745844 (Carcinogenic Potency Database (CPDB), 2022).

Values joined by “and” are separate entries in the source; they are usually repeats but may differ in a detail not shown here. Equal entries are not always repeated. Active and inactive are the calls of the source. No rule for the calls is given here.

This data set concerns rodent lifetime carcinogenesis bioassay, tumor incidence TD50. Nature of the data set: chronic cancer bioassays in animals – CPDB, compiled studies (AID 1745844).
Setting [1] is: mouse, strain B6C3F1, males, by gavage, site: any site (literature study), lesion: several types, types named in the paper, dosed 103 weeks, study length 104 weeks.

On to `CCCCCl`, for which the carcinogen call by setting is: (mouse, strain B6C3F1, females, by gavage, site: any site (literature study), lesion: several types, types named in the paper, dosed 103 weeks, study length 104 weeks) “negative (inactive)”; under setting [1], “negative (inactive)”. The TD50 (commonly the dose at which the toxic effect under study appears in half of the subjects) (mouse, strain B6C3F1, females, by gavage, site: liver, lesion: hepatocellular adenoma + hepatocellular carcinoma + neoplastic nodule, dosed 103 weeks, study length 105 weeks) is 1380 mg/kg/day; the TD50 (mouse, strain B6C3F1, females, by gavage, site: lung, lesion: alveolar/bronchiolar adenoma + alveolar/bronchiolar carcinoma, dosed 103 weeks, study length 104 weeks) turned out to be 13100 mg/kg/day; the TD50 (mouse, strain B6C3F1, females, by gavage, site: lung, lesion: alveolar/bronchiolar adenoma + alveolar/bronchiolar carcinoma, dosed 103 weeks, study length 105 weeks) was determined as 1160 mg/kg/day; the TD50 (mouse, strain B6C3F1, females, by gavage, site: lung, lesion: alveolar/bronchiolar carcinoma, dosed 103 weeks, study length 105 weeks) was 1710 mg/kg/day (inactive); the TD50 under setting [1] worked out at 423 mg/kg/day; the TD50 (mouse, strain B6C3F1, males, by gavage, site: bone marrow + kidney/pelvis + liver + multiple organs + omentum + spleen + thorax, lesion: hemangiosarcoma, dosed 103 weeks, study length 104 weeks) was 2830 mg/kg/day. Besides, the TD50 by setting is: (mouse, strain B6C3F1, males, by gavage, site: liver, lesion: hepatocellular adenoma + hepatocellular carcinoma + neoplastic nodule, dosed 103 weeks, study length 104 weeks) 808 mg/kg/day and 623 mg/kg/day; (mouse, strain B6C3F1, males, by gavage, site: liver, lesion: hepatocellular adenoma + hepatocellular carcinoma, dosed 103 weeks, study length 104 weeks) 808 mg/kg/day (inactive); (mouse, strain B6C3F1, males, by gavage, site: lung, lesion: alveolar/bronchiolar adenoma + alveolar/bronchiolar carcinoma, dosed 103 weeks, study length 104 weeks) 3190 mg/kg/day; (rat, strain Fischer 344, females, by gavage, site: any site (literature study), lesion: several types, types named in the paper, dosed 103 weeks, study length 105 weeks) 100 mg/kg/day (inactive); (rat, strain Fischer 344, females, by gavage, site: liver, lesion: hepatocellular adenoma + hepatocellular carcinoma + neoplastic nodule, dosed 103 weeks, study length 105 weeks) 1510 mg/kg/day; (rat, strain Fischer 344, males, by gavage, site: any site (literature study), lesion: several types, types named in the paper, dosed 103 weeks, study length 104 weeks) 40.5 mg/kg/day. Further, the TD50 (rat, strain Fischer 344, males, by gavage, site: testis, lesion: interstitial-cell tumor, dosed 103 weeks, study length 104 weeks) was 45.1 mg/kg/day (inactive).

Turning to `CSCCC(N)C(=O)O` (stereo not given), the TD50 is 4160 mg/kg/day (mouse, strain C3H/HeN, males, in feed, site: liver, lesion: hepatocellular adenoma, dosed 52 weeks, study length 52 weeks); 4470 mg/kg/day (mouse, strain C3H/HeN, males, in feed, site: liver, lesion: hepatocellular carcinoma, dosed 52 weeks, study length 52 weeks); 2000 mg/kg/day (mouse, strain C3H/HeN, males, in feed, site: liver, lesion: several types, types named in the paper, dosed 52 weeks, study length 52 weeks). For the same molecule, under “rat, strain Fischer 344, males, in feed, site: liver, lesion: neoplastic nodule, dosed 72 weeks, study length 103 weeks”, the carcinogen call is “negative (inactive)”.

For `Clc1nc(Cl)nc(Nc2ccccc2Cl)n1`, the TD50 was 99.2 mg/kg/day (inactive) (mouse, strain B6C3F1, females, in feed, site: any site (literature study), lesion: several types, types named in the paper, dosed 103 weeks, study length 107 weeks); 2550 mg/kg/day (mouse, strain B6C3F1, females, in feed, site: liver, lesion: hepatocellular adenoma + hepatocellular carcinoma + neoplastic nodule, dosed 103 weeks, study length 107 weeks); 1690 mg/kg/day (mouse, strain B6C3F1, females, in feed, site: lung, lesion: alveolar/bronchiolar adenoma + alveolar/bronchiolar carcinoma, dosed 103 weeks, study length 107 weeks); 1050 mg/kg/day (rat, strain Fischer 344, females, in feed, site: liver, lesion: hepatocellular adenoma + hepatocellular carcinoma + neoplastic nodule, dosed 103 weeks, study length 104 weeks); 246 mg/kg/day (inactive) (rat, strain Fischer 344, males, in feed, site: any site (literature study), lesion: several types, types named in the paper, dosed 103 weeks, study length 104 weeks). The carcinogen call reads like this: (mouse, strain B6C3F1, males, in feed, site: any site (literature study), lesion: several types, types named in the paper, dosed 103 weeks, study length 107 weeks) “negative (inactive)”; (rat, strain Fischer 344, females, in feed, site: any site (literature study), lesion: several types, types named in the paper, dosed 103 weeks, study length 104 weeks) “negative (inactive)”.

`Clc1cccc(-c2cccc(Cl)c2)c1`: the TD50 (rat, strain Wistar, males, in feed, site: liver, lesion: hepatocellular carcinoma, dosed 116 weeks, study length 116 weeks) is 157 mg/kg/day.

On to `CCN(N=O)C(N)=O`, for which the TD50 runs as follows: (rat, strain F344/DuCrj, females, in drinking water, site: all sites, lesion: mononuclear-cell leukemia, dosed 103 weeks, study length 111 weeks) 0.151 mg/kg/day; (rat, strain F344/DuCrj, females, in drinking water, site: any site (literature study), lesion: several types, types named in the paper, dosed 103 weeks, study length 111 weeks) 0.0687 mg/kg/day; (rat, strain F344/DuCrj, females, in drinking water, site: brain, lesion: several types, types named in the paper, dosed 103 weeks, study length 111 weeks) 0.904 mg/kg/day; (rat, strain F344/DuCrj, females, in drinking water, site: digestive tract, lesion: several types, types named in the paper, dosed 103 weeks, study length 111 weeks) 2.56 mg/kg/day; (rat, strain F344/DuCrj, females, in drinking water, site: duodenum, lesion: several types, types named in the paper, dosed 103 weeks, study length 111 weeks) 7.68 mg/kg/day; (rat, strain F344/DuCrj, females, in drinking water, site: mammary gland, lesion: adenocarcinoma, dosed 103 weeks, study length 111 weeks) 2.54 mg/kg/day. In addition, the TD50 is, setting by setting: (rat, strain F344/DuCrj, females, in drinking water, site: thyroid follicle, lesion: papillary adenoma, dosed 103 weeks, study length 111 weeks) 8.7 mg/kg/day; (rat, strain F344/DuCrj, females, in drinking water, site: uterus, endometrium, lesion: sarcoma, dosed 103 weeks, study length 111 weeks) 2.56 mg/kg/day; (rat, strain F344/DuCrj, females, in drinking water, site: uterus, lesion: adenoma, dosed 103 weeks, study length 111 weeks) 4.08 mg/kg/day; (rat, strain F344/DuCrj, females, in drinking water, site: uterus, lesion: endometrial stromal polyp, dosed 103 weeks, study length 111 weeks) 0.883 mg/kg/day; (rat, strain F344/DuCrj, males, in drinking water, site: any site (literature study), lesion: several types, types named in the paper, dosed 99 weeks, study length 111 weeks) 0.025 mg/kg/day; (rat, strain F344/DuCrj, males, in drinking water, site: brain, lesion: several types, types named in the paper, dosed 99 weeks, study length 111 weeks) 0.997 mg/kg/day. Also, the TD50 was 1.15 mg/kg/day (rat, strain F344/DuCrj, males, in drinking water, site: digestive tract, lesion: several types, types named in the paper, dosed 99 weeks, study length 111 weeks); 31.2 mg/kg/day (rat, strain F344/DuCrj, males, in drinking water, site: duodenum, lesion: several types, types named in the paper, dosed 99 weeks, study length 111 weeks); 16.4 mg/kg/day (rat, strain F344/DuCrj, males, in drinking water, site: liver, lesion: neoplastic nodule, dosed 99 weeks, study length 111 weeks); 2 mg/kg/day (rat, strain F344/DuCrj, males, in drinking water, site: lung, lesion: adenocarcinoma, dosed 99 weeks, study length 111 weeks); 0.518 mg/kg/day (rat, strain F344/DuCrj, males, in drinking water, site: lung, lesion: adenoma, dosed 99 weeks, study length 111 weeks); 0.889 mg/kg/day (rat, strain F344/DuCrj, males, in drinking water, site: mammary gland, lesion: fibroma, dosed 99 weeks, study length 111 weeks). Moreover, the TD50 (rat, strain F344/DuCrj, males, in drinking water, site: peripheral nervous system, lesion: several types, types named in the paper, dosed 99 weeks, study length 111 weeks) was 10.2 mg/kg/day; the TD50 (rat, strain F344/DuCrj, males, in drinking water, site: peritoneum, lesion: mesothelioma, dosed 99 weeks, study length 111 weeks) was found to be 0.109 mg/kg/day; the TD50 (rat, strain F344/DuCrj, males, in drinking water, site: subcutaneous tissue, lesion: fibroma, dosed 99 weeks, study length 111 weeks) was 2.42 mg/kg/day; the TD50 (rat, strain F344/DuCrj, males, in drinking water, site: thyroid follicle, lesion: papillary adenocarcinoma, dosed 99 weeks, study length 111 weeks) was 8.53 mg/kg/day; the TD50 (rat, strain F344/DuCrj, males, in drinking water, site: thyroid follicle, lesion: papillary adenoma, dosed 99 weeks, study length 111 weeks) was 3.9 mg/kg/day.

As for `O=NN1CSCSC1`, the TD50 (rat, strain Fischer 344, females, by gavage, site: liver, lesion: hepatocellular carcinoma, dosed 47 weeks, study length 110 weeks) was 10.5 mg/kg/day (inactive) and the TD50 (rat, strain Fischer 344, females, by gavage, site: nasal mucosa, lesion: carcinoma, dosed 47 weeks, study length 110 weeks) came out at 5.11 mg/kg/day.

With `CCNC(=O)Nc1ncc([N+](=O)[O-])s1`, the TD50 by setting is: (mouse, strain B6C3F1, females, in feed, site: any site (literature study), lesion: several types, types named in the paper, dosed 94 weeks, study length 104 weeks) 1400 mg/kg/day (inactive); (mouse, strain B6C3F1, females, in feed, site: liver, lesion: hepatocellular adenoma + hepatocellular carcinoma + neoplastic nodule, dosed 94 weeks, study length 104 weeks) 2720 mg/kg/day; (mouse, strain B6C3F1, males, in feed, site: any site (literature study), lesion: several types, types named in the paper, dosed 94 weeks, study length 104 weeks) 4750 mg/kg/day; (mouse, strain B6C3F1, males, in feed, site: liver, lesion: hepatocellular adenoma + hepatocellular carcinoma + neoplastic nodule, dosed 94 weeks, study length 104 weeks) 758 mg/kg/day; (mouse, strain B6C3F1, males, in feed, site: liver, lesion: hepatocellular adenoma + hepatocellular carcinoma, dosed 94 weeks, study length 104 weeks) 758 mg/kg/day; (mouse, strain B6C3F1, males, in feed, site: liver, lesion: hepatocellular carcinoma, dosed 94 weeks, study length 104 weeks) 1900 mg/kg/day. The TD50 by setting is: (rat, strain Fischer 344, females, in feed, site: any site (literature study), lesion: several types, types named in the paper, dosed 94 weeks, study length 104 weeks) 175 mg/kg/day; (rat, strain Fischer 344, females, in feed, site: mammary gland + skin + subcutaneous tissue, lesion: cystadenoma, NOS + fibroadenoma, dosed 94 weeks, study length 104 weeks) 131 mg/kg/day; (rat, strain Fischer 344, males, in feed, site: liver, lesion: hepatocellular adenoma + hepatocellular carcinoma + neoplastic nodule, dosed 94 weeks, study length 104 weeks) 508 mg/kg/day. Besides, the carcinogen call (rat, strain Fischer 344, males, in feed, site: any site (literature study), lesion: several types, types named in the paper, dosed 94 weeks, study length 104 weeks) was “negative (inactive)”.

As for `Nc1cc(S(=O)(=O)O)cc2cc(S(=O)(=O)O)c(N=Nc3ccc(-c4ccc(N=Nc5c(S(=O)(=O)O)cc6cc(S(=O)(=O)O)cc(N)c6c5O)cc4)cc3)c(O)c12`, the TD50 (rat, strain Fischer 344, females, in feed, site: any site (literature study), lesion: several types, types named in the paper, dosed 13 weeks, study length 13 weeks) worked out at 3.21 mg/kg/day; the TD50 (rat, strain Fischer 344, females, in feed, site: liver, lesion: hepatocellular adenoma + hepatocellular carcinoma + neoplastic nodule, dosed 13 weeks, study length 13 weeks) is 3.21 mg/kg/day; the TD50 (rat, strain Fischer 344, females, in feed, site: liver, lesion: hepatocellular carcinoma + neoplastic nodule, dosed 13 weeks, study length 13 weeks) was 3.21 mg/kg/day; the TD50 (rat, strain Fischer 344, females, in feed, site: liver, lesion: hepatocellular carcinoma, dosed 13 weeks, study length 13 weeks) turned out to be 5.97 mg/kg/day; the TD50 (rat, strain Fischer 344, males, in feed, site: any site (literature study), lesion: several types, types named in the paper, dosed 13 weeks, study length 13 weeks) amounted to 1.18 mg/kg/day; the TD50 (rat, strain Fischer 344, males, in feed, site: liver, lesion: hepatocellular adenoma + hepatocellular carcinoma + neoplastic nodule, dosed 13 weeks, study length 13 weeks) was determined as 1.18 mg/kg/day. In addition, the TD50 (rat, strain Fischer 344, males, in feed, site: liver, lesion: hepatocellular carcinoma + neoplastic nodule, dosed 13 weeks, study length 13 weeks) is 1.18 mg/kg/day.

Consider `CC(=O)Nc1ccc(S(=O)(=O)c2ccc(NC(C)=O)cc2)cc1`, for which the TD50 (rat, strain Buffalo, females, in feed, site: mammary gland, lesion: adenocarcinoma, dosed 43 weeks, study length 92 weeks) is 55.6 mg/kg/day.
